From paper PMC11973282, “RAS70 peptide targets multiforme glioblastoma by binding to the plasma membrane heat shock protein HSP70” (Frontiers in Oncology, 2025)
Where a SMILES comes first, the peptide text is derived from it. [ ]: non-standard residue; d: D form. βAla = NCCC(=O)O

Assays:
[1] = test system: human U87 glioblastoma cells; assay: Flow cytometry of FITC-labeled peptide internalization, 24 h (also with antibody pre-treatment); type: cell-based
Protocol: (§1) The binding of the TKD-sCy5, RAS70-sCy5, and NGL-RGD-sCy5 peptides were analyzed using a CytoFLEX flow cytometer (Beckman Coulter, USA). A single cell suspension of C6, GL261, T98G, U87, U251, ANI, IBD, TMS (0.15×10^6 cells in mL^-1) were incubated for 30 minutes on ice in the dark with peptides in concentration of 75 μg/mL, and then washed with cold PBS solution. Cells without peptides were used as controls. To evaluate incorporation of the fluorescently-labeled peptides for longer period of co-incubation of 24 h cells (C6, GL261, U87, U251) were treated with FITC-labeled peptides, then washed with PBS and assessed on a CytoFLEX flow cytometer (Beckman Coulter, USA). Following FACS analysis cell pellet was further evaluated employing confocal microscopy Leica TCS SP8 (Leica Microsystems, Germany).
(§2) The incorporation of peptides over longer periods of co-incubation with brain tumor cells was additionally analyzed using a Cytomics FC500 flow cytometer (BeckmanCoulter, USA). Tumor cells (C6, GL261, U87, U251) were incubated with peptides (concentration 50 μg/mL) for 24 hours, washed with PBS. Internalization of FITC-labeled peptides was assessed by determining the mean fluorescence intensity (MFI). According to the study data ( Figure 6A ), it was shown that TKD peptide accumulated in all cell lines – 2120 ± 152 (C6), 2099 ± 107 (GL261), 2145 ± 189 (U87), 2373 ± 201 (U251) compared to the control scramble peptide (NGL) – 378 ± 48 (C6), 344 ± 57 (GL261), 301 ± 66 (U87), 313 ± 56 (U251) (P<0.001). […] Following FACS analysis the cell pellet was collected and evaluated for peptides cell uptake employing confocal microscopy ( Figure 6B ). The obtained microscopy data confirmed higher accumulation of RAS70 peptide in studied cell lines as compared to TKD or scramble peptides.
(§3) Figure 6 Evaluation of the mHsp70-targeting peptides internalization by glioma cells. (A) Flow cytometric evaluation of FITC-labeled peptide accumulation in tumor cell lines (rat glioma C6, mouse glioma GL261, human glioblastoma U87 and U251) after co-incubation for 24 hours. […] (B) Confocal microscopy assessment of FITC-labeled peptide accumulation in tumor cell lines (rat glioma C6, mouse glioma GL261, human glioblastoma U87 and U251) after co-incubation for 24 hours. […] (C) Analysis of the peptides uptake by human U87 glioblastoma cells following co-incubation for 24 hours.
To evaluate the mHsp70-mediated uptake of the peptides prior to co-incubation with either TKD or RAS70 peptides cells were pre-treated with anti-Hsp70 antibodies (SPA-810, SPA-815) that are known to target the membrane-bound chaperone on cancer cells ([37]). […] The tripeptide RGD (Arg-Gly-Asp) motif is known to bind to integrins, including αvβ3 and αvβ5 expressed on brain tumor cells and tumor endothelial cells ([38], [39]). […] As expected, we observed the decrease of NGL-RGD and RAS70 internalization by tumor cells but not of TKD or NGL peptides ( Figure 6C ).

[2] = test system: C6, GL261, and T98G cells; assay: MTT test, overall statement for all cell lines studied; conditions: fluorescently labeled peptides, 7.5, 75, 750 µg/mL, 24, 48 and 72 hours
Protocol: 3-(4,5-dimethylthiazol-2-yl)-2,5-diphenyltetrazolium bromide (MTT) assay was performed to evaluate the cytotoxic effect of TKD-sCy5, RAS70-sCy5, and NGL-RGD-sCy5 peptides. The C6, GL261, and T98G cells were seeded in 96-well plates (Thermo Fisher Scientific, Waltham, USA) at concentration of 5*10^3 cells in 100 µL per well, plates were incubated at 37°C in 5% CO2. After 24 hours, peptides were added to the culture medium for final concentration of 7.5, 75, and 750 μg/mL; plates were incubated for 24, 48 and 72 hours. […] At the end of the incubation period, 1 mg/mL MTT solution was added for 4 hours and dissolved with DMSO. The absorbance was measured at 570 nm using Varioskan LUX Multimode Microplate Reader (Thermo Fisher Scientific, Waltham, USA).
Subsequently, we analyzed the cytotoxic effect of the peptides (RAS70, TKD, NGL, NGL-RGD) using the MTT test at various peptides concentrations (7.5, 75, 750 µg/mL) and co-incubation times of 24, 48 and 72 hours.

[3] = test system: U251 cells (lower chamber; HUVEC and astrocytes barrier)
Protocol: (§4) Then, a peptide labeled with a fluorescent label was introduced into the upper chamber and co-incubation was carried out for 12, 24 and 36 hours. At the end of the incubation, the tumor cells were washed with cold phosphate-buffered saline (PBS) and fixed with a 4% solution of paraformaldehyde in PBS. Nuclei were stained with 4’,6-diamidino-2-phenylindole (DAPI). Fluorescent images were obtained using a Leica TCS SP8 confocal microscope (Leica, Germany). To avoid possible cross-interference of different fluorochromes, images for DAPI and FITC were obtained using a sequential sample scanning method. Fluorescently labeled cells were counted in the lower chamber. To estimate the mHsp70-mediated uptake of chaperone-targeted peptides tumor cells prior to incubation were pre-treated with anti-Hsp70 monoclonal antibodies SPA-810 (1:250, Stressgen) and SPA-815 (1:250 Stressgen). To exclude integrin (αvβ3, αvβ5)-mediated penetration of RAS70 tumor cells prior to incubation with peptides were pre-treated with anti- αvβ3 (1:200 clone LM609, ZMS1030, Sigma-Aldrich, USA), -αvβ5 (1:200 clone P1F6, MAB1961Z, Sigma-Aldrich, USA) monoclonal antibodies.
(§5) Then, a peptide labeled with a fluorescent dye (FITC) was introduced into the upper chamber and co-incubation was carried out for 12, 24 and 36 hours. At the end of the incubation, the tumor cells were washed with cold phosphate-buffered saline (PBS) and fixed with a 4% solution of paraformaldehyde in PBS. Nuclei were stained with 4’,6-diamidino-2-phenylindole (DAPI).
(§6) Data from 3 independent experiments are presented as M ± SE. […] Data from 3 independent experiments are presented as M ± SE. ** p < 0.01 for testing mean expression levels.

[4] = test system: GL261 (mouse glioma) cells; assay: Flow cytometry of FITC-labeled peptide internalization, 24 h; type: cell-based; conditions: 50 μg/mL, M ± SE, 3 independent experiments
Protocol: as §1, §2, §3

C6 (rat glioma) cells = assay: as above; type: cell-based; conditions: 50 μg/mL, M ± SE, 3 independent experiments
Protocol: as §1, §2, §3

[5] = test system: human glioblastoma U251 cells; assay: as above; type: cell-based; conditions: 50 μg/mL, M ± SE, 3 independent experiments
Protocol: as §1, §2, §3

[6] = test system: C6 cells (lower chamber; HUVEC and astrocytes barrier)
Protocol: as §4, §5, §6

[7] = test system: GL261 cells (lower chamber; HUVEC and astrocytes barrier)
Protocol: as §4, §5, §6

[8] = test system: U87 cells (lower chamber; HUVEC and astrocytes barrier); assay: Transwell BBB model, peptide passage and accumulation in tumor cells (also with antibody pre-treatment); type: in vitro ADME, human
Description: Fluorescently labeled cells were counted in the lower chamber.
Next, we assessed the mHsp70- and integrin (αvβ3, αvβ5)-mediated penetration of the TKD and RAS70 via the BBB ( Figure 9B ). […] When anti-αvβ3 and anti-αvβ5 mAbs were employed, we detected the decrease of NGL-RGD and RAS70 penetration via the BBB but not the NGL and TKD peptides.

| Compound | peptide internalization after pre-treatment with anti-αvβ3 and -αvβ5 antibodies ([1]; U87, 24 hours, cells pre-treated with anti-αvβ3 (LM609) and anti-αvβ5 (P1F6) mAbs (1:200)) | peptide uptake after pre-treatment with both anti-Hsp70 and anti-αvβ3/-αvβ5 mAbs ([1]; U87, 24 hours, combination of antibodies) | cytotoxic effect (MTT test) [2] | fluorescently labeled tumor cells in the lower chamber [3] [cells] | mean fluorescence intensity (MFI), internalization of FITC-labeled peptide ([1]; U87, 50 μg/mL, 24 hours, flow cytometry, M ± SE, 3 independent experiments) | mean fluorescence intensity (MFI), internalization of FITC-labeled peptide [4] | mean fluorescence intensity (MFI), internalization of FITC-labeled peptide (C6 (rat glioma) cells) | mean fluorescence intensity (MFI), internalization of FITC-labeled peptide [5] | fluorescently labeled tumor cells in the lower chamber [6] [cells] | fluorescently labeled tumor cells in the lower chamber [7] [cells] | fluorescently labeled tumor cells in the lower chamber ([8]; transwell BBB model: HUVEC (5×10^5) and astrocytes (5×10^5) in upper chamber, U87 (1×10^4) in lower chamber, FITC-labeled peptide, 36 hours, confocal microscopy count, M ± SE, 3 independent experiments) [cells] | penetration via the BBB after combined anti-αvβ3, anti-αvβ5 and anti-Hsp70 mAbs ([8]; transwell, U87 cells, combined antibody treatment) |
| --- | --- | --- | --- | --- | --- | --- | --- | --- | --- | --- | --- | --- |
| CC(C)C[C@H](NC(=O)CNC(=O)[C@@H](N)CC(N)=O)C(=O)N[C@H](C(=O)N[C@@H](CC(C)C)C(=O)N[C@@H](CCCCN)C(=O)N[C@@H](CC(N)=O)C(=O)N[C@@H](CC(=O)O)C(=O)N[C@@H](Cc1ccccc1)C(=O)N[C@@H](CO)C(=O)N[C@@H](CCCNC(=N)N)C(=O)N[C@@H](CC(C)C)C(=O)N[C@@H](CCC(=O)O)C(=O)NCC(=O)NCCC(=O)N[C@@H](CCCNC(=N)N)C(=O)NCC(=O)N[C@@H](CC(=O)O)C(=O)O)[C@@H](C)O [NGL-RGD] (H-NGLTLKNDFSRLEG[βAla]RGD-OH) | decrease | significant abrogation | did not reveal the toxic effect | – | – | – | – | – | – | – | – | – |
| NGLTLKNDFSRLEG [control scramble peptide] | – | – | – | 221 ± 38 | 301 ± 66 | 344 ± 57 | 378 ± 48 | 313 ± 56 | 211 ± 29 | 188 ± 47 | 211 ± 41 | excluding |
